# Publication PMC6345779, “Hypoculoside, a sphingoid base-like compound from Acremonium disrupts the membrane integrity of yeast cells” (Scientific Reports, 2019)
# Experiments:
# [1] = tested on: vps35Δ, pep8Δ, vps20Δ, vps27Δ and vps36Δ strains; assay: Single-mutant sensitivity growth assay of deletion strains in YPD medium; assay type: cell-based, Saccharomyces cerevisiae
# Protocol: Figure 3 Homozygous profiling of hypoculoside in Saccharomyces cerevisiae. (A) logFC (Fitness Coefficient) was plotted against P-value for the 3702 mutants that were analyzed by HOP. The more negative the logFC value of a mutant, more sensitive is the mutant to hypoculoside. Mutants that have logFC < −0.5 and P-value < 0.05 are indicated by red dots and the remaining strains are indicated as blue dots. For the sake of clarity, gene names of only a subset of the top hits are indicated in the plot. (B) Wild type strain BY4743 and 24 deletion strains that were sensitive to hypoculoside in the HOP assay, were grown in the YPD medium in the presence of either DMSO or hypoculoside at different concentrations (0, 0.6, 1.3, 2.7 and 5.5 µM). Normalized growth at the different concentrations of hypoculoside tested after 24 hours of incubation at 30 °C is plotted for each strain.
# To test the validity of our HOP data, we first identified 336 ‘hypoculoside-sensitive’ mutants (Supplementary Table S1) that had at least a 1.4-fold inhibitory effect on their growth rate (i.e. logFC ≤ −0.5) with a P-value ≤ 0.05. From the list of 336 mutants, we chose 24 mutants that represent different Gene Ontology categories (see below) and tested their sensitivity to hypoculoside. Eighteen of the total 24 mutants were sensitive to hypoculoside confirming the HOP data (Fig. 3B). We also tested mutants that were predicted to be resistant to hypoculoside (positive logFC ≥ 0.5 and P-value ≤ 0.05). But none of them were resistant to hypoculoside in comparison to wild type strain in the single-mutant sensitivity assays (data not shown).
# (§1) Figure 5 Structure-activity studies of hypoculoside. (A) Wild type strain (BY4743), vps35Δ, pep8Δ, vps20Δ, vps27Δ and vps36Δ strains were grown in YPD medium in the presence of hypoculoside or hypoculine at the indicated concentrations. Normalized growth at the different concentrations of hypoculoside and hypoculine tested after 24 hours of incubation at 30 °C is plotted for each strain. (B) Wild type strain (BY4743), vps35Δ, pep8Δ, vps20Δ, vps27Δ and vps36Δ strains were grown in YPD medium in the presence of hypoculoside or phytosphingosine or dihydrosphingosine at the indicated concentrations. Normalized growth at the different concentrations of hypoculoside, phytosphingosine and dihydrosphingosine tested after 24 hours of incubation at 30 °C is plotted for each strain.
# [2] = tested on: Saccharomyces cerevisiae diploid wild-type strain (BY4743); assay: Growth inhibition of wild type Saccharomyces cerevisiae in YPD medium (96-well, OD600); assay type: cell-based
# Protocol: as §1
# Susceptibility of Candida albicans strain SC5314 to hypoculoside and amphotericin B was determined by a broth microdilution assay using Clinical Laboratory Standards Institute (CLSI) guidelines. Cells grown to exponential phase in YPD medium (1% Yeast extract, 2% Bacto peptone and 2% glucose) were harvested, washed and resuspended in RPMI 1640 medium at a density of 2×10^3 cells/mL. RPMI 1640 medium with L-glutamine without sodium bicarbonate (Sigma) was buffered with 0.165 M morpholinepropanesulfonic acid (MOPS) to a pH of 7.0. Two-fold dilutions of hypoculoside and amphotericin B were prepared such that final concentration of DMSO was 1% in all cultures. Cell suspension was distributed in microtiter plate (200 µL/well) and incubated at 35 °C with 220 rpm for 24 h. The Saccharomyces cerevisiae diploid wild-type strain (BY4743) was used for determining the Inhibitory Concentration (IC) of hypoculoside. Frozen yeast cells were allowed to recover on YPD agar plates and grown in YPD medium for nine generations (OD600 nm ≤ 2). Cells were diluted to OD600 nm of 0.0625 in YPD medium. 200 μL of the diluted yeast culture was transferred into the 96-well microtiter plate having 2-fold serially diluted concentrations of hypoculoside. Cells were incubated in a microplate reader for 16–24 hours at 30 °C with shaking. IC of hypoculoside was computed by comparing the growth of treated versus control cells.
smiles,measurement,setting,value
"CC(N)C(O)CCCCCCCCCCCCCCCCCCC(O)C(C)OC1OC(CO)C(O)C(O)C1O (stereo not drawn) [hypoculoside, Hypoculoside]","inhibition of growth of the vps35, pep8, vps20, vps27 and vps36 mutants","[1]; 5.5 µM, YPD, 24 hours at 30 °C",completely inhibited
same,"concentration that inhibited the growth of the vps35, pep8, vps20, vps27 and vps36 mutants","[1]; YPD, 24 hours at 30 °C (Fig. 5A)",5.5 µM
same,toxicity to vesicular trafficking mutants in comparison to the wild type strain,[1]; several vesicular trafficking mutants,two-fold more toxic
same,concentration that inhibited the growth of wild type cells,"[2]; BY4743, YPD, 24 hours at 30 °C (Fig. 5A)",11 µM
same,IC50,"[2]; Saccharomyces cerevisiae, read-out: IC50 for growth of Saccharomyces cerevisiae cells",7.2 µM
same,inhibition at 5.5 µM,"[2]; Saccharomyces cerevisiae, 5.5 µM, YPD, 24 hours at 30 °C",10%
